Laboratory results: the supplement of paper PMC10307832

How the values were obtained:
Assay in all cases: relative viability (nuclei count vs DMSO), 5 days (fraction); higher = more cells survive
[1] = compound: NCC(=O)Nc1ccc(-n2nc(C(F)(F)F)cc2-c2ccc3c(ccc4ccccc43)c2)cc1 + Nc1ncn([C@H]2C[C@H](O)[C@@H](CO)O2)c(=O)n1 [Decitabine] (partner 2 µM)
How it was run: (§1)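 The day after seeding in 1536-well plates, lung cancer cell lines were treated by pin tool with a single drug, or with a fixed anchor-drug dose together with five library-drug doses (not always all listed) in √10 steps. After 5 days, a combined fix-and-stain solution (final 0.05% Triton X-100, 1% formaldehyde, 1 ug/ml Hoechst) was added. Nuclei counted on 4× images gave relative viability as treated counts over vehicle counts, reported as the median of duplicate plates.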

[2] = compound: C1CSC2=C(C(=O)N1)SC3=C2C=C(C=C3)O [kb NB 142-70] + CC(=O)c1c(C)c2cnc(Nc3ccc(N4CCNCC4)cn3)nc2n(C2CCCC2)c1=O [Palbociclib] (partner 0.5 µM)
How it was run: as §1

[3] = compound: NCC(=O)Nc1ccc(-n2nc(C(F)(F)F)cc2-c2ccc3c(ccc4ccccc43)c2)cc1 + NC(=O)Nc1cc(-c2cccc(F)c2)sc1C(=O)N[C@H]1CCCNC1 [AZD7762] (partner 0.2 µM)
How it was run: as §1

kb NB 142-70 + Alpelisib = compound: C1CSC2=C(C(=O)N1)SC3=C2C=C(C=C3)O [kb NB 142-70] + Cc1nc(NC(=O)N2CCC[C@H]2C(N)=O)sc1-c1ccnc(C(C)(C)C(F)(F)F)c1 [Alpelisib] (partner 2 µM)
How it was run: as §1

Cell Line | relative viability ([1]; first compound 0.02 µM) | relative viability ([1]; first compound 0.06325 µM) | relative viability ([1]; first compound 0.2 µM) | relative viability ([1]; first compound 0.6325 µM) | relative viability ([1]; first compound 2 µM) | relative viability ([2]; first compound 0.1 µM) | relative viability ([2]; first compound 1 µM) | relative viability ([2]; first compound 3.162 µM) | relative viability ([3]; first compound 0.02 µM) | relative viability ([3]; first compound 0.06325 µM) | relative viability ([3]; first compound 0.2 µM) | relative viability ([3]; first compound 0.6325 µM) | relative viability ([3]; first compound 2 µM) | relative viability (kb NB 142-70 + Alpelisib; first compound 0.1 µM) | relative viability (kb NB 142-70 + Alpelisib; first compound 1 µM) | relative viability (kb NB 142-70 + Alpelisib; first compound 3.162 µM)
NCI-H2342 | 0.653 | 0.775 | 0.788 | 0.709 | 0.744 | 0.547 | 0.497 | 0.589 | 0.666 | 0.633 | 0.502 | 0.449 | 0.558 | – | – | –
HCC-15 | 0.623 | 0.659 | 0.677 | 0.67 | 0.654 | 0.699 | 0.699 | 0.588 | 1.28 | 1.13 | 1.21 | 1.36 | 1.06 | 0.908 | 0.787 | 0.626
A-427 | 0.502 | 0.544 | 0.583 | 0.545 | 0.57 | 0.505 | 0.555 | 0.507 | 0.757 | 0.719 | 0.854 | 0.693 | 0.786 | 1.01 | 1.23 | 1.11
NCI-H2228 | – | – | – | – | – | 0.819 | 0.719 | 0.446 | – | – | – | – | – | 0.7 | 0.729 | 0.494
NCI-H1734 | 0.545 | 0.497 | 0.488 | 0.485 | 0.534 | 0.365 | 0.363 | 0.279 | 0.52 | 0.556 | 0.565 | 0.515 | 0.611 | 0.659 | 0.607 | 0.46
PC-14 | 0.259 | 0.236 | 0.209 | 0.258 | 0.23 | 0.557 | 0.636 | 0.496 | 0.419 | 0.367 | 0.36 | 0.328 | 0.381 | 0.902 | 0.969 | 0.99
NCI-H1915 | 0.272 | 0.275 | 0.276 | 0.262 | 0.256 | 0.498 | 0.52 | 0.343 | 0.644 | 0.729 | 0.642 | 0.703 | 0.754 | 1.07 | 1.08 | 0.648
NCI-H1666 | 0.771 | 0.567 | 0.778 | 0.746 | 0.652 | 0.581 | 0.591 | 0.693 | 0.75 | 0.844 | 0.919 | 0.868 | 0.91 | 0.805 | 1.01 | 0.632
HCC-366 | 0.353 | 0.369 | 0.367 | 0.352 | 0.517 | 0.404 | 0.477 | 0.356 | 0.236 | 0.205 | 0.31 | 0.276 | 0.333 | 0.425 | 0.333 | 0.296
SK-MES-1 | 0.386 | 0.36 | 0.461 | 0.359 | 0.4 | 0.343 | 0.424 | 0.402 | – | – | – | – | – | 0.932 | 0.922 | 0.833
SW 1573 | 0.496 | 0.524 | 0.524 | 0.518 | 0.436 | 0.418 | 0.376 | 0.208 | – | – | – | – | – | 0.86 | 0.549 | 0.529
NCI-H661 | 0.507 | 0.592 | 0.524 | 0.579 | 0.572 | 0.379 | 0.363 | 0.342 | – | – | – | – | – | 0.812 | 0.526 | 0.613
PC-3 [JPC-3] | 0.818 | 0.854 | 0.768 | 0.863 | 0.777 | 0.516 | 0.54 | 0.534 | 0.792 | 0.873 | 0.85 | 0.88 | 0.832 | 1.06 | 1.04 | 0.968
Calu-6 | – | – | – | – | – | – | – | – | – | – | – | – | – | 0.984 | 0.867 | 0.478
LC-2-ad | 0.808 | 0.779 | 0.831 | 0.789 | 0.774 | 0.457 | 0.475 | 0.513 | 1.09 | 0.875 | 0.772 | 0.849 | 0.886 | 0.858 | 0.958 | 0.813
CAL-12T | – | – | – | – | – | 0.48 | 0.363 | 0.188 | 0.739 | 0.622 | 0.718 | 0.669 | 0.588 | 1.22 | 1.5 | 0.644
RERF-LC-KJ | 0.758 | 0.791 | 0.673 | 0.78 | 0.641 | 1.1 | 1.18 | 0.983 | 0.959 | 0.863 | 0.996 | 1.12 | 1.03 | 0.778 | 0.827 | 0.706
NCI-H1650 | 0.381 | 0.459 | 0.431 | 0.355 | 0.508 | 0.362 | 0.39 | 0.321 | – | – | – | – | – | – | – | –
BEN | 0.69 | 0.669 | 0.7 | 0.709 | 0.77 | 0.443 | 0.459 | 0.488 | 0.627 | 0.76 | 0.789 | 0.798 | 0.628 | 0.922 | 0.982 | 0.689
EMC-BAC-2 | 1.02 | 0.998 | 1.05 | 0.948 | 0.944 | 0.524 | 0.553 | 0.516 | 1.09 | 1.1 | 1.1 | 1.13 | 1.16 | 0.74 | 0.754 | 0.572
LU99A | 0.817 | 0.987 | 0.838 | 0.843 | 0.91 | 0.379 | 0.447 | 0.413 | 0.333 | 0.387 | 0.389 | 0.341 | 0.355 | 0.517 | 0.499 | 0.354
ABC-1 | 0.917 | 1.02 | – | 0.954 | 1.13 | 0.425 | 0.83 | 0.534 | 0.811 | 0.899 | – | 0.758 | 0.866 | 1.16 | 0.932 | 0.796
NCI-H2170 | 0.496 | 0.454 | 0.518 | 0.446 | 0.45 | 0.413 | 0.44 | 0.392 | 0.87 | 0.907 | 0.94 | 0.911 | 0.86 | 0.76 | 0.852 | 0.561
